Data as given in US20080261898A1, “COMPOSITION AND METHOD FOR CANCER TREATMENT AND PREVENTION” (priority 2007, published 2008).

Legend:
LNCaP cells [1] = assay: Viable cells, Annexin-V staining and flow cytometry, LNCaP cells; type: cell-based, human; details: 72 hr
Experimental: (§1) AC620 was incubated with DU-145 cells, LNCaP cells and primary human prostate endothelial cells at high concentrations (0, 5, 100, 500, 1000 μM) for 72 hr. The number of viable cells was measured by Annexin-V staining followed by flow cytometry analysis.

LNCaP cells [2] = assay: BrdU based cell proliferation assay, LNCaP cells; set-up: species or system human
Experimental: (§2) AC620 was incubated with hormone-refractory prostate cancer cell line DU-145 cells and hormone-responsive prostate cancer cell line LNCaP cells at various concentrations (0, 0.1, 0.5, 1, 5 μM) for 72 hr. LNCaP cells were maintained in RPMI 1640 medium (PAA Laboratories, Pashing, Austria) supplemented with 10% fetal calf serum (FCS) (Sigma, St. Louis, Mo.). The effect of AC620 on proliferation of DU-145 cells and LNCaP cells was determined by using a non-radioactive BrdU based cell proliferation assay kit (Roche, Switzerland) according to manufacturer's protocol. BrdU incorporation into the cellular DNA was determined by measuring the absorbance at 450 nm and 690 nm on an ELISA plate reader.
as §2, with “0 (Control) and” for “various concentrations (0, 0.1, 0.5, 1,”, “μM” for “μM)”, “for 24, 48 and” for “for”, “hr.” for “hr. LNCaP cells were maintained in RPMI 1640 medium (PAA Laboratories, Pashing, Austria) supplemented with 10% fetal calf serum (FCS) (Sigma, St. Louis, Mo.).”

[3] = test system: primary human prostate endothelial cells; assay: Viable cells, Annexin-V staining and flow cytometry, primary human prostate endothelial cells; type: cell-based; details: up to the highest concentration, 1000 μM, 72 hr
Experimental: as §1

CDK2 [4] = assay: CDK2 expression in DU-145 cells, immunoblotting; type: cell-based, human; details: 72 hr
Experimental: (§3) After 72 hr treatment, cell lysates were collected and immunoblotting was performed. The membranes were probed with primary antibodies against CDK2 (Transduction Laboratory, San Jose, Calif.) and actin (Santa Cruz Biotechnology, Santa Cruz, Calif.) followed by horseradish peroxidase (HRP)-conjugated secondary antibodies and visualized using the Enhanced Chemi-Luminescence detection system (ECL) and ECL films.

Bcl-2 = Bcl-2 expression in xenograft tumor samples, immunoblotting; type: in vivo, mouse
Experimental: (§4) 8-12 week old athymic nude mice (Jackson Laboratories, Bar Harbor, Me., US) were randomly assigned to Control (n=10) and Treatment (n=10) groups. Tumor xenografts were generated by injecting DU-145 cells (4×10^6) subcutaneously into the mice (Day 1). 1 mg/kg body weight of AC620 or PBS (Control) was administrated to the mice by subcutaneous injection starting at the time of tumor implantation (Day 1) and the mice were treated twice a week. Tumors were measured periodically. At Day 30, the mice were sacrificed. Half of each tumor was processed for immunohistochemical analysis and the other half was frozen for subsequent protein and RNA analysis.
(§5) Xenograft mouse model was generated and AC620 or PBS (Control) was administrated to the transplanted mice for 30 days as described above. After the mice were sacrificed, immunoblotting analysis of the tumor samples was performed using Bcl-2 and p21 antibodies as described above.

LNCaP cells [5] = assay: Apoptosis, Annexin V flow cytometry, LNCaP cells; type: cell-based, human; details: 72 hr
Experimental: (§6) AC620 was incubated with DU-145 cells and LNCaP cells at various concentrations (0, 0.1, 0.5, 1, 5 μM) for 72 hr. The effect of AC620 on apoptosis of DU-145 cells and LNCaP cells was assessed. The cells were washed in 1×PBS and resuspended in binding buffer (0.01M Hepes pH 7.4, 0.14M NaCl, 2.5 mM CaCl2), stained with Annexin V conjugated with APC (Pharmingen) and then subjected to flow cytometry analysis using FACS Caliber (BD Biosciences, San Jose, Calif.).

HT-29 cells = assay: BrdU based cell proliferation assay, HT-29 cells; details: 72 hr
Experimental: as §2
AC620 was incubated with metastatic colorectal cancer cell line HT-29 cells at various concentrations (0, 0.1, 0.5, 1, 4 μM) for 72 hr. The effect of AC620 on proliferation of HT-29 cells was determined by using a non-radioactive, BrdU based cell proliferation assay as described above.

[6] = test system: VEGF Receptor I (VEGF R1); assay: VEGF R1 expression in DU-145 cells, immunoblotting; type: cell-based, human; details: 0.1, 0.5, 1 μM, 72 hr
Experimental: as §3, with “DU-145 cells were treated with AC620 at various concentrations (0, 0.1, 0.5, 1 μM) for 72 hr. After” for “After”, “VEGF Receptor I (VEGF R1) and VEGF Receptor II (VEGF R2)” for “CDK2 (Transduction Laboratory, San Jose, Calif.)”

DU-145 cells = assay: Apoptosis, Annexin V flow cytometry, DU-145 cells; type: cell-based, human; details: 72 hr
Experimental: as §6

CDK2 [7] = assay: CDK2 expression in xenograft tumor samples, immunoblotting; type: in vivo, mouse
Experimental: as §4
Xenograft mouse model was generated and AC620 or PBS (Control) was administrated to the transplanted mice for 30 days as described above. After the mice were sacrificed, immunoblotting analysis of the tumor samples was performed using CDK1 and CDK2 antibodies as described above.

p21 = p21 expression in xenograft tumor samples, immunoblotting; type: in vivo, mouse
Experimental: as §4, §5

CC1OC(OCC2OC(Oc3c(-c4ccc(O)c(O)c4)oc4cc(O)c(O)cc4c3=O)C(O)C(O)C2O)C(O)C(O)C1O (stereo not shown) [AC620]
viable LNCaP cells decreased (LNCaP cells [1]; 5 μm): 42%
viable LNCaP cells decreased (LNCaP cells [1]; 100 μm): 67%
viable LNCaP cells decreased (LNCaP cells [1]; 500 μm): 92%
viable LNCaP cells decreased (LNCaP cells [1]; 1000 μm): 96%
decrease in cell proliferation of LNCaP cells (LNCaP cells [2]; 5 μM, after 24 hr): 16%
decrease in cell proliferation of LNCaP cells (LNCaP cells [2]; 5 μM, after 48 hr): 20%
decrease in cell proliferation of LNCaP cells (LNCaP cells [2]; 5 μM, after 72 hr (time study)): 65%
decrease in cell proliferation of LNCaP cells (LNCaP cells [2]; 0.1 μm, 72 hr): 23%
decrease in cell proliferation of LNCaP cells (LNCaP cells [2]; 0.5 μm, 72 hr): 20%
decrease in cell proliferation of LNCaP cells (LNCaP cells [2]; 1 μm, 72 hr): 42%
decrease in cell proliferation of LNCaP cells (LNCaP cells [2]; 5 μm, 72 hr (dose study)): 65%
viability of primary human prostate endothelial cells [3]: remained viable
estimated decrease of CDK2 expression (CDK2 [4]; 0.1 μm): ~0%
estimated decrease of CDK2 expression (CDK2 [4]; 0.5 μm): ~10%
estimated decrease of CDK2 expression (CDK2 [4]; 1 μm): ~20%
estimated decrease of CDK2 expression (CDK2 [4]; 4 μm): ~60%
estimated decrease of Bcl-2 expression in tumor samples (Bcl-2; Treatment 1): ~80%
estimated decrease of Bcl-2 expression in tumor samples (Bcl-2; Treatment 2): > 95%
estimated decrease of Bcl-2 expression in tumor samples (Bcl-2; Treatment 3): ~90%
estimated decrease of Bcl-2 expression in tumor samples (Bcl-2; Treatment 4): > 95%
apoptosis increased, LNCaP cells (LNCaP cells [5]; 0.1 μm): 46%
apoptosis increased, LNCaP cells (LNCaP cells [5]; 0.5 μm): 81%
apoptosis increased, LNCaP cells (LNCaP cells [5]; 1 μm): 154%
apoptosis increased, LNCaP cells (LNCaP cells [5]; 5 μm): 177%
cell proliferation decreased, HT-29 cells (HT-29 cells; 0.1 μm): 0%
cell proliferation decreased, HT-29 cells (HT-29 cells; 0.5 μm): 5%
cell proliferation decreased, HT-29 cells (HT-29 cells; 1 μm): 46%
cell proliferation decreased, HT-29 cells (HT-29 cells; 4 μm): 62%
change in VEGF R1 expression [6]: no change
apoptosis increased, DU-145 cells (DU-145 cells; 0.1 μm): 46%
apoptosis increased, DU-145 cells (DU-145 cells; 0.5 μm): 115%
apoptosis increased, DU-145 cells (DU-145 cells; 1 μm): 285%
apoptosis increased, DU-145 cells (DU-145 cells; 5 μm): 389%
reduction of CDK2 expression in tumor samples (CDK2 [7]; Treatment 1): approximately 80%
reduction of CDK2 expression in tumor samples (CDK2 [7]; Treatments 2, 3 and 4): > 95%
p21 expression reduced in tumor samples (p21; Treatment 1): 0%
p21 expression reduced in tumor samples (p21; Treatment 2): 70%
